Assays:
[1] = GI S9 stability, human, Example Y; format: in vitro ADME; conditions: pooled intestinal S9 fractions; human intestinal S9, 1.0 mg/mL protein, 2 μM compound, pH 7.4; read-out: GIS9 Human T½ (per Ex. Y)
Method: (§1) Example Y: GI S9 Stability Data
(§2) Stock solutions of test compounds in dimethyl sulfoxide (DMSO) having a final concentration of 10 mM were prepared and used in all experiments. Sekisui XenoTech (Kansas City, KS) provided pooled intestinal S9 fractions. All other chemicals were purchased from Sigma-Aldrich (St. Louis, MO) or VWR (West Chester, PA). Internal Standard/Quench (IS/Q) used to stop reactions was 100 nM labetalol in (by volume) methanol (10%) and acetonitrile (90%).
(§3) Stability in Intestinal S9 Fractions: Duplicate aliquots of test compound or positive control substrate were added to S9 stock diluted with phosphate buffered saline (137 mM NaCl, 2.7 mM KCl, 10 mM phosphate buffer), pH 7.4, to obtain a protein concentration of 1.0 mg/mL. The metabolic reactions were initiated by the addition of the substrates to the S9 reaction mixture to a final concentration of 2 μM. At 0, 10, 20, 30, 60 and 120 min, 25 μL aliquots of the reaction mixture were transferred to plates containing 225 μl of IS/Q solution. After quenching, the plates were centrifuged at 3000×g for 30 minutes. 150 μL aliquots of each supernatant were dried down then reconstituted with 300 μL water. Aliquots (10 μL) of the prepared samples were analyzed on a Thermo Q-Exactive mass spectrometer as described below.
(§4) Liquid Chromatography—Mass Spectrometry: Quantification of test compounds and control substrate was performed by analyte/internal standard peak area ratio (PAR) values measured on a Thermo Q-Exactive mass spectrometer coupled to a Dionex UltiMate 3000 HPLC with a Leap Technologies HTC PAL autosampler. The column used for analysis was a Waters Acquity BEH C18 (1.7 μm particle size, 2.1×50 mm). Mobile phase A consisted of 0.1% (v/v) formic acid in water. Mobile phase B consisted of 0.1% (v/v) formic acid in acetonitrile. Elution of analytes was achieved by a series of linear gradients varying the proportions of A and B. The mass spectrometer was calibrated on a weekly basis and mass tolerance of 5 ppm was used.
(§5) Metabolic stabilities in S9 fractions were determined by measuring the rates of disappearance of test compound and positive control substrate.
(§6) Data (% of substrate remaining) were plotted on a semi-log scale and fitted using an exponential decline model:
(§7) Ct=C0×e^−ln2/T1/2×t • Where Ct—% of substrate remaining at time=t; C0—% of substrate remaining at time=0; t—time; T1/2—half-life. • The Half-life (T1/2) is determined by the following equation: […]
(§8) Assuming a first-order reaction, the slope (k) is extrapolated from the aforementioned plotted data.

[2] = GI S9 stability, rat, Example Y; format: in vitro ADME; conditions: pooled intestinal S9 fractions; rat intestinal S9, 1.0 mg/mL protein, 2 μM compound, pH 7.4; read-out: GIS9 Rat T½ (per Ex. Y)
Method: as §1, §2, §3, §4, §5, §6, §7, §8

[3] = tested on: Respiratory syncytial virus recombinant with luciferase (RSV-Luc5); experiment: NHBE RSV-Luc5 384-well assay (EC50 RSVFLUC NHBE-384 v2), Example W; format: cell-based; conditions: human respiratory syncytial virus, 72 h, read-out: EC50 RSV FLUC NHBE 384 V2 (per Ex. W)
Text: Example W: NHBE RSV-Luc5 384-Well Assay (EC50 RSVFLUC NHBE-384 v2)
Normal Human Bronchial Epithelial (NHBE) cells were purchased from Lonza (Walkersville, MD Cat #CC2540) and maintained in BEGM Bronchial Epithelial Cell Growth Medium BulletKit (Lonza CC-3170).
Cells were thawed, expanded, and were used for experiments at passage 2. Respiratory syncytial virus recombinant with luciferase (RSV-Luc5) (≥1×10^7 Infectious Units/mL (IU/mL) determined by TCID50) was purchased from Microbiologics (Saint Cloud, MN). Viral replication was determined in NHBE cells in the following manner.
Compounds are prepared in 100% DMSO in 384-well polypropylene plates (Greiner, Monroe, NC, Cat #784201) with 8 compounds per plate in grouped replicates of 4 at 10 serially diluted concentrations (1:3). The serially diluted compounds were transferred to low dead volume Echo plates (Labcyte, Sunnyvale, CA, Cat #LP-0200).
The test compounds were spotted to 384-well assay plates (Greiner, Monroe, NC, Cat #781091) at 200 nL per well using an Echo acoustic dispenser (Labcyte, Sunnyvale, CA). NHBE cells were harvested and suspended in BEGM Bronchial Epithelial Cell Growth Medium BulletKit and seeded to the pre-spotted assay plates at 5,000 cells per well in 30 μL. RSV-Luc5 virus was diluted in BEGM Bronchial Epithelial Cell Growth Medium BulletKit at 500,000 Infectious Units (IU) per mL and 10 μL per well was added to the assay plates containing cells and compounds, for an MOI of 1. The assay plates were incubated for 3 days at 37° C. and 5% CO2. At the end of incubation, One-Glo reagent (Promega, Madison, WI, Cat #E6120) was prepared. The assay plates and One-Glo reagent were equilibrated to room temperature for at least 15 minutes. 40 μL per well of One-Glo reagent was added and the plates were incubated at room temperature for 15 minutes before reading the luminescence signal on an EnVision multimode plate reader (Perkin Elmer, Waltham, MA). Remdesivir was used as positive control and DMSO was used as negative control. Values were normalized to the positive and negative controls (as 0% and 100% replication, respectively) and data was fitted using non-linear regression analysis by Gilead's dose response tool. The EC50 value for each compound was defined as the concentration reducing the viral replication by 50%.

## N#C[C@]1(COC(=O)OCCc2ccccc2)O[C@@H](c2ccc3c(N)ncnn23)[C@H](O)[C@@H]1O [Compound 5, ((2R,3S,4R,5S)-5-(4-aminopyrrolo[2,1-f][1,2,4]triazin-7-yl)-2-cyano-3,4-dihydroxytetrahydrofuran-2-yl)methyl phenethyl carbonate]
[1]
  half-life at 2 μM: 44 min
[2]
  half-life at 2 μM: 4 min
[3]
  EC50: 12.5 µM

## CC(C)CCOC(=O)OC[C@@]1(C#N)O[C@@H](c2ccc3c(N)ncnn23)[C@H](O)[C@@H]1O [Compound 7, ((2R,3S,4R,5S)-5-(4-aminopyrrolo[2,1-f][1,2,4]triazin-7-yl)-2-cyano-3,4-dihydroxytetrahydrofuran-2-yl)methyl isopentyl carbonate]
[1]
  half-life at 2 μM: 20 min
[2]
  half-life at 2 μM: 3 min
[3]
  EC50: 13.9 µM

## CC(C)COC(=O)Nc1ncnn2c([C@@H]3O[C@](C#N)(CO)[C@@H](O)[C@H]3O)ccc12 [Compound 16, Isobutyl (7-((2S,3R,4S,5R)-5-cyano-3,4-dihydroxy-5-(hydroxymethyl)tetrahydrofuran-2-yl)pyrrolo[2,1-f][1,2,4]triazin-4-yl)carbamate]
[1]
  half-life at 2 μM: 789 min
[2]
  half-life at 2 μM: 789 min
[3]
  EC50: 50 µM

## N#C[C@]1(COC(=O)OC2CCC2)O[C@@H](c2ccc3c(N)ncnn23)[C@H](O)[C@@H]1O [Compound 17, ((2R,3S,4R,5S)-5-(4-aminopyrrolo[2,1-f][1,2,4]triazin-7-yl)-2-cyano-3,4-dihydroxytetrahydrofuran-2-yl)methyl cyclobutyl carbonate]
[1]
  half-life at 2 μM: 29 min
[2]
  half-life at 2 μM: 7 min
[3]
  EC50: 5.96 µM

## CCCCCCOC(=O)OC[C@@]1(C#N)O[C@@H](c2ccc3c(N)ncnn23)[C@H](O)[C@@H]1O [Compound 19, ((2R,3S,4R,5S)-5-(4-aminopyrrolo[2,1-f][1,2,4]triazin-7-yl)-2-cyano-3,4-dihydroxytetrahydrofuran-2-yl)methyl hexyl carbonate]
[1]
  half-life at 2 μM: 11 min
[2]
  half-life at 2 μM: 2 min
[3]
  EC50: 7.03 µM

## CCCCCOC(=O)OC[C@@]1(C#N)O[C@@H](c2ccc3c(N)ncnn23)[C@H](O)[C@@H]1O [Compound 20, ((2R,3S,4R,5S)-5-(4-aminopyrrolo[2,1-f][1,2,4]triazin-7-yl)-2-cyano-3,4-dihydroxytetrahydrofuran-2-yl)methyl pentyl carbonate]
[1]
  half-life at 2 μM: 16 min
[2]
  half-life at 2 μM: 3 min
[3]
  EC50: 7.51 µM

## N#C[C@]1(COC(=O)OC2CCCCC2)O[C@@H](c2ccc3c(N)ncnn23)[C@H](O)[C@@H]1O [Compound 21, ((2R,3S,4R,5S)-5-(4-aminopyrrolo[2,1-f][1,2,4]triazin-7-yl)-2-cyano-3,4-dihydroxytetrahydrofuran-2-yl)methyl cyclohexyl carbonate]
[1]
  half-life at 2 μM: 44 min
[2]
  half-life at 2 μM: 8 min
[3]
  EC50: 7 µM

## CCOC(=O)OC[C@@]1(C#N)O[C@@H](c2ccc3c(N)ncnn23)[C@H](O)[C@@H]1O [Compound 22, ((2R,3S,4R,5S)-5-(4-aminopyrrolo[2,1-f][1,2,4]triazin-7-yl)-2-cyano-3,4-dihydroxytetrahydrofuran-2-yl)methyl ethyl carbonate]
[1]
  half-life at 2 μM: 55 min
[2]
  half-life at 2 μM: 14 min
[3]
  EC50: 6.62 µM

## N#C[C@]1(COC(=O)OC2CC2)O[C@@H](c2ccc3c(N)ncnn23)[C@H](O)[C@@H]1O [Compound 23, ((2R,3S,4R,5S)-5-(4-aminopyrrolo[2,1-f][1,2,4]triazin-7-yl)-2-cyano-3,4-dihydroxytetrahydrofuran-2-yl)methyl cyclopropyl carbonate]
[1]
  half-life at 2 μM: 19 min
[2]
  half-life at 2 μM: 9 min
[3]
  EC50: 7.79 µM

## CC[C@H](C)COC(=O)OC[C@@]1(C#N)O[C@@H](c2ccc3c(N)ncnn23)[C@H](O)[C@@H]1O [Compound 28, ((2R,3S,4R,5S)-5-(4-aminopyrrolo[2,1-f][1,2,4]triazin-7-yl)-2-cyano-3,4-dihydroxytetrahydrofuran-2-yl)methyl ((S)-2-methylbutyl) carbonate]
[1]
  half-life at 2 μM: 18 min
[2]
  half-life at 2 μM: 4 min
[3]
  EC50: 9.4 µM

## N#C[C@]1(COC(=O)OCc2ccccc2)O[C@@H](c2ccc3c(N)ncnn23)[C@H](O)[C@@H]1O [Compound 29, ((2R,3S,4R,5S)-5-(4-aminopyrrolo[2,1-f][1,2,4]triazin-7-yl)-2-cyano-3,4-dihydroxytetrahydrofuran-2-yl)methyl benzyl carbonate]
[1]
  half-life at 2 μM: 15 min
[2]
  half-life at 2 μM: 3 min
[3]
  EC50: 10.9 µM

## N#C[C@]1(COC(=O)OCC2CCCC2)O[C@@H](c2ccc3c(N)ncnn23)[C@H](O)[C@@H]1O [Compound 30, ((2R,3S,4R,5S)-5-(4-aminopyrrolo[2,1-f][1,2,4]triazin-7-yl)-2-cyano-3,4-dihydroxytetrahydrofuran-2-yl)methyl (cyclopentylmethyl) carbonate]
[1]
  half-life at 2 μM: 15 min
[2]
  half-life at 2 μM: 3 min
[3]
  EC50: 7.54 µM

## CCC(CC)COC(=O)OC[C@@]1(C#N)O[C@@H](c2ccc3c(N)ncnn23)[C@H](O)[C@@H]1O [Compound 31, ((2R,3S,4R,5S)-5-(4-aminopyrrolo[2,1-f][1,2,4]triazin-7-yl)-2-cyano-3,4-dihydroxytetrahydrofuran-2-yl)methyl (2-ethylbutyl) carbonate]
[1]
  half-life at 2 μM: 18 min
[2]
  half-life at 2 μM: 3 min
[3]
  EC50: 8.65 µM

## N#C[C@]1(COC(=O)OCC2CC2)O[C@@H](c2ccc3c(N)ncnn23)[C@H](O)[C@@H]1O [Compound 32, ((2R,3S,4R,5S)-5-(4-aminopyrrolo[2,1-f][1,2,4]triazin-7-yl)-2-cyano-3,4-dihydroxytetrahydrofuran-2-yl)methyl (cyclopropylmethyl) carbonate]
[1]
  half-life at 2 μM: 33 min
[2]
  half-life at 2 μM: 8 min
[3]
  EC50: 7.12 µM

## CCCOCCOC(=O)OC[C@@]1(C#N)O[C@@H](c2ccc3c(N)ncnn23)[C@H](O)[C@@H]1O [Compound 34, ((2R,3S,4R,5S)-5-(4-aminopyrrolo[2,1-f][1,2,4]triazin-7-yl)-2-cyano-3,4-dihydroxytetrahydrofuran-2-yl)methyl (2-propoxyethyl) carbonate]
[1]
  half-life at 2 μM: 108 min
[2]
  half-life at 2 μM: 11 min
[3]
  EC50: 6.39 µM

## CC(C)(C)CCOC(=O)OC[C@@]1(C#N)O[C@@H](c2ccc3c(N)ncnn23)[C@H](O)[C@@H]1O [Compound 35, ((2R,3S,4R,5S)-5-(4-aminopyrrolo[2,1-f][1,2,4]triazin-7-yl)-2-cyano-3,4-dihydroxytetrahydrofuran-2-yl)methyl (3,3-dimethylbutyl) carbonate]
[1]
  half-life at 2 μM: 19 min
[2]
  half-life at 2 μM: 4 min
[3]
  EC50: 5.78 µM
